The target of assay [1] is T1, ERR1 (also known as ERR-α or ERR-1) (Homo sapiens, UniProt P11474).
T1 sequence (P11474 193-421 limits assumed): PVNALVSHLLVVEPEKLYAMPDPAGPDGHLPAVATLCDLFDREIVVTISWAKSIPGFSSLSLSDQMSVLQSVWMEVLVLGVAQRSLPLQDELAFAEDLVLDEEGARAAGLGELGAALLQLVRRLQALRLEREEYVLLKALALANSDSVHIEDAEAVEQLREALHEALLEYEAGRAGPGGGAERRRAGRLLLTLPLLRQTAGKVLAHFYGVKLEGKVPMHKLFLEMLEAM
Kind of assay: TR-FRET assay (disruption of co-activator peptide binding). In kind it is biochemical. The note with it: 6His-tagged ERR1 LBD, GST-hSRC2 co-activator polypeptide; average of 3 independent experiments. The method, boiled down: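 His6-ERR1 LBD (6 nM) with GST-SRC-2 peptide (6 nM), anti-GST Eu cryptate (30 nM) and anti-His XL665 (7.5 nM) in Tris pH 8/KCl/DTT/BSA buffer, equilibrated 4-18 h at 25 °C. Ex 340, em 615/665 nm; hyperbolic dose-response fit, mean of 3 experiments.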
For orientation: Time-resolved FRET reads energy transfer from a long-lived donor to a nearby acceptor.

The subject of the next assay is Zucker fa/fa male rats. The assay is described as follows: Zucker fa/fa Rat Model Assay. The note with it: dosed orally once a day for 4 days, blood collected at day 5. In kind it is in vivo. An excerpt: Zucker fa/fa is a monogenic model of frank diabetes due to a mutation on the fa gene truncating the leptin receptor and preventing its interaction with its peptide hormone. This mutation results in a hyperphagic phenotype and the rodent develops obesity, hyperlipidemia, fasting hyperglycemia and insulin resistance. Zucker fa/fa male rats were received at four weeks of age and allowed to acclimate for one week. At five weeks of age the animals were single housed in cages in a temperature-controlled room with 12-hour light/dark cycle. The rats were allowed ad libitum access to water and food and throughout the study were maintained on a Purina 5008 diet. Animals were sorted based primarily on fed insulin levels and circulating triglycerides. Animals were dosed orally once a day in the morning for 4 days. The vehicle used was either 20% HPβCD (Hydroxypropyl Beta Cyclodextrin) or 15% Vitamin E/30% PEG-400 (Polyethylene Glycol 400). Fed insulin and triglycerides were measured using blood collected from the tail vein at day 5. Serum plasma samples were prepared by centrifugation in EDTA (Ethylenediaminetetraacetic acid) containing tubes, transferred into 96 well plates and stored at −80° C.

Broadly, the EC50 is the concentration giving half of the maximal effect. Higher therefore signals a less potent agent.

SMILES strings stand for the structures.

Turning to `O=C1N=C(N2CCc3c(O)noc3C2)S/C1=C\c1ccc2c(cnn2Cc2ccc(Cl)cc2C(F)(F)F)c1` [Example 197, 5-({1-[4-Chloro-2-(trifluoromethyl)benzyl]-1H-indazol-5-yl}methylidene)-2-(3-hydroxy-4,7-dihydroisoxazolo[5,4-c]pyridin-6(5H)-yl)-1,3-thiazol-4(5H)-one], the EC50 in assay [1] was 0.029 µM. Further, in the assay with Zucker fa/fa male rats, the “% Lowering Fed Insulin Levels” value is 27% and the “% Lowering Fed Triglyceride Levels” value is listed as 2%.
For `O=C(O)C1=CCN(C2=NC(=O)/C(=C/c3ccc4c(cnn4Cc4ccc(Cl)cc4C(F)(F)F)c3)S2)CC1` [Example 198, 1-[5-({1-[4-Chloro-2-(trifluoromethyl)benzyl]-1H-indazol-5-yl}methylidene)-4-oxo-4,5-dihydro-1,3-thiazol-2-yl]-1,2,3,6-tetrahydropyridine-4-carboxylic acid] the same measures were 0.015 µM, 35% and 21%.
`COC(=O)N[C@@H]1C[C@H](CO)N(C2=NC(=O)/C(=C/c3ccc4c(cnn4Cc4ccc(C(F)(F)F)cc4C(F)(F)F)c3)S2)C1` [Example 213, Methyl {1-[5-({1-[2,4-bis(trifluoromethyl)benzyl]-1H-indazol-5-yl}methylidene)-4-oxo-4,5-dihydro-1,3-thiazol-2-yl]-5-(R)-(hydroxymethyl)pyrrolidin-3-(R)-yl}carbamate] came in with a half-maximal effective concentration (EC50) in assay [1] of 0.021 µM. Moreover, in the assay with Zucker fa/fa male rats, the “% Lowering Fed Insulin Levels” value is 42% and the “% Lowering Fed Triglyceride Levels” value is reported as 30%.
`CN1CCN(C2=NC(=O)/C(=C/c3ccc4c(c3)c(C#N)nn4Cc3ccc(Cl)cc3C(F)(F)F)S2)CC1` [Example 223, 1-[4-Chloro-2-(trifluoromethyl)benzyl]-5-{[2-(4-methylpiperazin-1-yl)-4-oxo-1,3-thiazol-5(4H)-ylidene]methyl}-1H-indazole-3-carbonitrile] returned a concentration giving a half-maximal response (EC50) in assay [1] of 0.0134 µM. In the assay on Zucker fa/fa male rats, the “% Lowering Fed Insulin Levels” value is 77% and the “% Lowering Fed Triglyceride Levels” value is 85%.

Values taken from patent US8399681B2, “Substituted aminothiazolone indazoles as estrogen related receptor-alpha modulators” (Janssen Pharmaceutica NV, priority 2009, dated 2013).
